Literature values, collected in patent US20080014152A1, “INTRANASAL DELIVERY OF C[…] THE […] AND INTO THE BRAIN” (priority 2006, published 2008).

Columns and labels:
[1] = system: NGF protein; conditions: Zhu 1998; intraperitoneal
[2] = system: TGF-β
[3] = system: U937 cell; conditions: Izeboud 1999; U937 cells stimulated with LPS
[4] = system: NGF mRNA; conditions: Follesa 1993; 10 mg/kg intraperitoneal, within 5 hours of administration
[5] = system: hippocampal cultures; conditions: Semkova 1996; in vitro exposure of hippocampal cultures
[6] = Culmsee 2004
[7] = Sleeper 2002; chronic systemic administration
[8] = system: bFGF mRNA
[9] = system: astrocytes; conditions: Abdulla 2005; astrocytes treated with LPS
[10] = Rami 2003; after transient global ischemia
[11] = McIntyre 2005; infusions into the amygdala
[12] = target: T1, β2 adrenergic receptors (Rattus norvegicus, UniProt P10608); conditions: Colangelo 1998; stimulation of β2 adrenergic receptors
T1 construct: host or cells: rat cerebral cortex (in vivo)
T1 sequence (P10608 whole entry): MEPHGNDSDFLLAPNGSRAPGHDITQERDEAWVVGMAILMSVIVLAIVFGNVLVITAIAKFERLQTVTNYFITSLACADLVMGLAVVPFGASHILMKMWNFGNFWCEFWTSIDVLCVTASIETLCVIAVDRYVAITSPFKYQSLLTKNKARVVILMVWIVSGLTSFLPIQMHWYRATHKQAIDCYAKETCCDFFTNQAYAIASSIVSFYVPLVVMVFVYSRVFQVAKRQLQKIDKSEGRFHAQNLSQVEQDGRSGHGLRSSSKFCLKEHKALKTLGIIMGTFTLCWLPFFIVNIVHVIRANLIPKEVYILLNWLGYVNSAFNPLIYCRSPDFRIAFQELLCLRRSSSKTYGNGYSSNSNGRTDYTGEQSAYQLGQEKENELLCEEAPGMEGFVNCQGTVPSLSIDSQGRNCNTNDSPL

[13] = Culmsee 1999
[14] = system: hippocampal cells; conditions: Zhu 2001

## CC(C)(C)NCC(O)c1cc(Cl)c(N)c(Cl)c1 (stereo not drawn) [clenbuterol]
[1]
  elevation of NGF protein levels in the rat hippocampus: 33%
[2]; Zhu 2001, 0.5 mg/kg, as early as 3 hours after administration, elevated up to 2 days
  TGF-β immunoreactivity: increase TGF-β immunoreactivity
[2]; in vivo
  induction of TGF-β production in neurons: 2-3 ×
[3]
  IL-6 production: decreasing
  IL-10 production: increase IL-10 production
  TNF-α production: decreasing
[4]
  increase in NGF mRNA in the cerebral cortex: 2-3 fold
[5]
  NGF content in the culture medium: enhanced significantly
[6]
  neuroprotective capacity in experimental models of stroke: neuroprotective capacity
[7]
  side effects, cardiac function: negative alteration of cardiac function
[8]; Follesa 1993, 10 mg/kg intraperitoneal, within 5 hours of administration
  increase in bFGF mRNA in the cerebral cortex, hippocampus and cerebellum: 2-3 fold
[8]; in vivo
  induction of bFGF production in neurons: 2-3 ×
[9]
  protection from inflammation in astrocytes: provides protection from inflammation
[10]
  apoptosis in the rat hippocampus: attenuates apoptosis
[11]
  memory: enhance memory
[12]
  NGF biosynthesis in the rat cerebral cortex: increases NGF biosynthesis
[13]; 0.01-0.5 mg/kg, rats, measured 7 days after permanent occlusion of the middle cerebral artery
  cortical infarct volume: reduced cortical infarct volume
[13]; dosages greater than 1 mg/kg
  blood pressure: decrease in blood pressure
  cerebroprotective effect: no cerebroprotective effect
  plasma glucose level: increase in plasma glucose level
[14]
  neuroprotection of hippocampal cells after ischemia: provided neuroprotection
